Reference: patent publication US9567318B2, “Substituted pyrimidine compounds and uses thereof” (Memorial Sloan-Kettering Cancer Center, priority 2009, dated 2017)

Key:
[1] = tested on: Hsp70 species from SKBr3 cancer cell extracts; test: Hsp70 competition assay using YK55 beads, SKBr3 extracts; format: binding, human
Description: FIG. 14. YK5 has a higher affinity for tumor Hsp70s and selectively kills cancer cells. (a-c) Cells were treated with the indicated concentrations of inhibitors for the times presented, and metabolically viable cells by Alamar blue uptake as described in Methods (a). Molecular markers of apoptosis (PARP and caspase-3 cleavage) were analyzed in cells treated for 24 h with indicated concentrations of inhibitors, by western blotting (b, c). Morphology of cells treated for 24 h with vehicle or the indicated inhibitors was analyzed by light microscopy (c). (d) Extracts (500 μg) were incubated overnight with beads containing D-biotin (75 μM) or the indicated concentrations of YK55 added to 50 μl streptavidin beads. HS=heat shocked. (e) SKBr3 (200 μg) and MRC-5 (400 μg) extracts and recombinant human Hsp70 (2 μg) were incubated for 3 h with the indicated concentrations with YK5, followed by precipitation of Hsp70 complexes on YK55-beads (50 μM YK55 added to 50 μl streptavidin beads). Data obtained from three independent experiments were graphed (right). Points, mean; bars, s.d.
In a second experiment, the ability of soluble YK5 to compete YK55-binding to normal and cancer cell Hsp70 species were tested (FIG. 14e). […] Interaction of YK5 was even weaker with recombinant human Hsp70 (FIG. 14e).
Hsp70 Competition Assay Using the YK55 Beads. […]

[2] = target: T1, Hsc70 and DJA2 (Homo sapiens, UniProt P11142); test: Luciferase refolding by Hsc70 and DJA2; format: biochemical; settings: 30° C.
T1 construct: made in house
Description: FIG. 6. YK5 inhibits core biochemical functions of Hsp70s and disrupts the Hsp90/Hsp70 interaction. a) Refolding of denatured luciferase by Hsc70 and DJA2 at 30° C. was measured for the indicated times in the presence of YK5 (100 μM) or vehicle (left), or at 60 min in the presence of indicated concentrations of YK5 (right). b) Hsc70 ATPase rates were measured for reactions at 30° C. with the indicated combinations of Hsc70 and co-chaperones in the presence of vehicle (DMSO) or YK5 (100 μM). ADP production was monitored by thin layer chromatography separation of radiolabeled ADP from ATP and phosphorimaging analysis (lower). […] Proteins isolated with anti-Hsp90 and Hsp70s antibodies (IP: Hsp90 or Hsp70), or present in the cell extract (Lysate) were analyzed by WB. […] Proteins were applied to a native gel and analyzed by immunoblotting. […]
Hsc70 ATPase Activity and Luciferase Refolding. Human Hsc70, DJA1/DNAJA1, DJA2/DNAJA2 and Hsp110/Hsp105/HSPH1 were purified and analyzed. […] Samples at time points were terminated with 37.5 mM EDTA and analyzed by thin layer chromatography on polyethylene-imine cellulose (Mallinckrodt Baker) developed in 0.5 M LiCl and 0.5 M formic acid. The ADP produced was determined by image phosphor quantitation and the linear enzymatic rates (Vmax) were calculated by regression analysis. […]

[3] = tested on: Kasumi-1 acute myeloid leukemia cells; test: Growth Inhibition Assay (Alamar blue), Kasumi-1; format: cell-based, human; settings: Homo sapiens, Kasumi 1, 72 h, Kasumi-1 cells
Method in brief: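 Adherent SKBr3 cells seeded at 8,000/well and suspension Kasumi-1 cells at 20,000/well, rested 24 h at 37 °C, then treated in triplicate for 72 h. Viability read by Alamar blue (440 µM) fluorescence (ex 530/em 580 nm) after 6 h; growth inhibition calculated versus untreated controls, corrected for the time-zero cell population.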

T1 sequence (P11142 whole entry): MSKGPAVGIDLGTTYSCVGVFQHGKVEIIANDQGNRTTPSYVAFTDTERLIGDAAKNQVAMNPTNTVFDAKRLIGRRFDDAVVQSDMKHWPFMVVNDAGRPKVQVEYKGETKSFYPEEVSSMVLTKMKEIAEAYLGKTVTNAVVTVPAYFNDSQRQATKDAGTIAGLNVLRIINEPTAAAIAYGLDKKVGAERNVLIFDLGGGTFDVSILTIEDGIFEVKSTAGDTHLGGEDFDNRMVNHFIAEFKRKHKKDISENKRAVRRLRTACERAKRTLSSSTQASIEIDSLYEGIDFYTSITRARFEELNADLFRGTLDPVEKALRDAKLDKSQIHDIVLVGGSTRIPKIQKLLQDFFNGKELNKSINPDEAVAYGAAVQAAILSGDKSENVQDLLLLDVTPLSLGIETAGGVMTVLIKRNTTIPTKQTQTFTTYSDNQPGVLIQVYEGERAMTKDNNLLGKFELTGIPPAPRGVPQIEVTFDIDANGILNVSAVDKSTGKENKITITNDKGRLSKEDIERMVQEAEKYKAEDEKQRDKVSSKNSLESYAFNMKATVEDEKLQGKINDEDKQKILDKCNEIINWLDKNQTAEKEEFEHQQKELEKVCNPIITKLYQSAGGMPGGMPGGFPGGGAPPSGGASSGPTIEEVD

With `C=CC(=O)Nc1cc(N)nc(Sc2c(OC)nc(N3CCN(C)CC3)nc2OC)n1` [YK5, N-(6-amino-2-(4,6-dimethoxy-2-(4-methylpiperazin-1-yl)pyrimidin-5-ylthio)pyrimidin-4-yl)acrylamide] the “concentration competing binding of YK55-beads to Hsp70” value [1] was “low micromolar concentrations”, the “refolding of luciferase by purified Hsc70 and DJA2” value [2] was “dose-dependently inhibited the refolding of luciferase” and the IC50 [3] was 0.4 to 0.6 µM.
